According to patent US9580449B2, “Compositions and methods for the production of pyrimidine and pyridine compounds with BTK inhibitory activity” (Merck Patent GmbH, priority 2011, dated 2017):
Where two headings read alike, the source gives them in different places.

Assays:
[1] = tested on: PBMC; test: Time Dependent PBMC IC50 assay; assay type: cell-based
Protocol: Compounds described by embodiments of the present invention were assayed using a time dependent PMBC assay.

[2] = target: full-length human BTK (Homo sapiens (Human), UniProt Q06187); test: BTK IC50 enzyme assay (microfluidic off-chip mobility shift kinase assay); assay type: biochemical; conditions: incubated for 90 min. at 27 C; read-out: Time Dependent BTK Enzyme Assay IC50
In short: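 Off-chip microfluidic mobility shift assay on full-length human BTK; substrate-to-product conversion measured by charge/mass separation of phosphorylated peptide after reaction stop.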

[3] = target: BTK (Homo sapiens (Human), UniProt Q06187); test: Time Dependent Human Whole Blood IC50 assay; assay type: cell-based
Protocol: Compounds described by embodiments of the present invention were assayed using a human whole blood assay. The data from the same is recorded in Table 2 within the column labeled: “Time Dependent Human Whole Blood BTK Enzyme Assay IC50”.

[4] = human whole blood, read-out: Time Dependent Human Whole Blood BTK Enzyme Assay IC50

full-length human BTK, sequence (Q06187 whole entry): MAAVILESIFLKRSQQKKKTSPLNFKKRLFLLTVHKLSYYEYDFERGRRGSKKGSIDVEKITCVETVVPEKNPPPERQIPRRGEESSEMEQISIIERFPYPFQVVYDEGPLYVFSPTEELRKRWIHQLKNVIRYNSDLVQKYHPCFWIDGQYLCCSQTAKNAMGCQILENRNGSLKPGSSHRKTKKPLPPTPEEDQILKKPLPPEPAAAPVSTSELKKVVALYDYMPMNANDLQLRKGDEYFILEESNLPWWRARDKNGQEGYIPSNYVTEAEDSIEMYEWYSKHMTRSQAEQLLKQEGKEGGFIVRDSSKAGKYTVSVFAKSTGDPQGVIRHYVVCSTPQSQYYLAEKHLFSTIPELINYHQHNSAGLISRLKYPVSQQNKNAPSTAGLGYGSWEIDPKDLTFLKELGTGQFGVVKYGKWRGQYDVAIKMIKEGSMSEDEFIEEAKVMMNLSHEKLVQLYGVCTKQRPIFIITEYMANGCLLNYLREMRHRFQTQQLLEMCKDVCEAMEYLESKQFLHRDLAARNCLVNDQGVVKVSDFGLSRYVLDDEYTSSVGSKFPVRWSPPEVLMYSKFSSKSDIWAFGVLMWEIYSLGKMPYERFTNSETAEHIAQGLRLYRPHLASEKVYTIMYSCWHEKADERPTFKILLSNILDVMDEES
BTK, sequence (Q06187 whole entry): as above

Row | Structure (SMILES) | IC50 [1] [nM] | IC50 [2] [nM] | IC50 [3, 4] [nM] | IC50 [3] [nM]
1 | C=CC(=O)Nc1cccc(-c2c(N)ncnc2Oc2ccc(Oc3ccccc3)cc2)c1 [A245, N-(3-(4-amino-6-(4-phenoxyphenoxy)pyrimidin-5-yl)phenyl)acrylamide] | < 1000 | < 100 |  | 
2 | C=CC(=O)Nc1cccc(Nc2ncnc(N)c2-c2cnn(Cc3ccccc3)c2)c1 [A70, N-(3-((6-amino-5-(1-benzyl-1H-pyrazol-4-yl)pyrimidin-4-yl)amino)phenyl)acrylamide] | < 1000 | < 100 |  | 
3 | C=CC(=O)Nc1cccc(-c2cnc(N)nc2Oc2ccc(Oc3ccccc3)cc2)c1 [A306, N-(3-(2-amino-4-(4-phenoxyphenoxy)pyrimidin-5-yl)phenyl)acrylamide] | < 1000 | < 100 |  | 
4 | C=CC(=O)Nc1ccc(F)c(Oc2ncnc(N)c2-c2ccc(Oc3ccccc3)cc2)c1 [A246, N-(3-((6-amino-5-(4-phenoxyphenyl)pyrimidin-4-yl)oxy)-4-fluorophenyl)acrylamide] | < 1000 | < 100 | < 1000 | 
5 | C=CC(=O)N1CCC(CNc2ncnc(N)c2-c2ccc(Oc3ccccc3)nc2)CC1 [A168, 1-(4-(((6-amino-5-(6-phenoxypyridin-3-yl)pyrimidin-4-yl)amino)methyl)piperidin-1-yl)prop-2-en-1-one] | > 1000 | > 1000 |  | 
6 | C=CC(=O)N1CCC2(CC(Nc3ncnc(N)c3-c3ccc(Oc4ccccc4)cc3)C2)C1 (stereo not shown) [A113, 1-(2-((6-amino-5-(4-phenoxyphenyl)pyrimidin-4-yl)amino)-6-azaspiro[3.4]octan-6-yl)prop-2-en-1-one] | < 1000 | < 100 |  | 
7 | CN(C)C/C=C/C(=O)N1CC[C@@H](CNc2ncnc(N)c2-c2ccc(Oc3ccccc3)cc2)[C@H](O)C1 [A126, (E)-1-((3S,4S)-4-(((6-amino-5-(4-phenoxyphenyl)pyrimidin-4-yl)amino)methyl)-3-hydroxypiperidin-1-yl)-4-(dimethylamino)but-2-en-1-one] | < 1000 | < 100 |  | 
8 | C#CC(=O)N1CCC2(CC(Nc3ncnc(N)c3-c3ccc(Oc4ccccc4)cc3)C2)C1 (stereo not shown) [A115, 1-(2-((6-amino-5-(4-phenoxyphenyl)pyrimidin-4-yl)amino)-6-azaspiro[3.4]octan-6-yl)prop-2-yn-1-one] | > 1000 | < 100 |  | 
9 | C=CC(=O)N1CC2(CC(Oc3ncnc(N)c3-c3ccc(Oc4ccncc4)cc3)C2)C1 [A114, 1-(6-((6-amino-5-(4-(pyridin-4-yloxy)phenyl)pyrimidin-4-yl)oxy)-2-azaspiro[3.3]heptan-2-yl)prop-2-en-1-one] | > 1000 | < 100 |  | 
10 | CN(C)C/C=C/C(=O)Nc1cccc(Oc2ncnc(N)c2-c2ccc(Oc3ccccc3)cc2)c1 [A252, (E)-N-(3-((6-amino-5-(4-phenoxyphenyl)pyrimidin-4-yl)oxy)phenyl)-4-(dimethylamino)but-2-enamide] | < 1000 | < 100 |  | 
11 | C=CC(=O)Nc1cccc(Oc2ncnc(N)c2-c2ccc(Oc3ccccc3)cc2)c1 [A242, N-(3-((6-amino-5-(4-phenoxyphenyl)pyrimidin-4-yl)oxy)phenyl)acrylamide] | < 1000 | < 100 |  | 
12 | CN(C)C/C=C/C(=O)Nc1cccc(Oc2ccnc(N)c2-c2ccc(Oc3ccccc3)cc2)c1 [A151, (E)-N-(3-((2-amino-3-(4-phenoxyphenyl)pyridin-4-yl)oxy)phenyl)-4-(dimethylamino)but-2-enamide] | > 1000 | < 100 |  | 
13 | C=CC(=O)N[C@H]1C[C@@H](Nc2ncnc(N)c2-c2ccc(Oc3ccccc3)cc2)C1 [A118] | < 1000 | < 100 |  | 
14 | C=CC(=O)N1C[C@H](Nc2ncnc(N)c2-c2ccc(Oc3ccccc3)cc2)[C@@H](O)C1 (relative stereo) [A75, 1-(trans-3-((6-amino-5-(4-phenoxyphenyl)pyrimidin-4-yl)amino)-4-hydroxypyrrolidin-1-yl)prop-2-en-1-one] | < 1000 | < 100 |  | 
15 | CN(C)C/C=C/C(=O)N1CC2(CC(Nc3ncnc(N)c3-c3ccc(Oc4ccccc4)cc3)C2)C1 [A127, (E)-1-(6-((6-amino-5-(4-phenoxyphenyl)pyrimidin-4-yl)amino)-2-azaspiro[3.3]heptan-2-yl)-4-(dimethylamino)but-2-en-1-one] | < 1000 | < 100 |  | 
16 | CN(C)C/C=C/C(=O)N1CC2(CC(Oc3ncnc(N)c3-c3ccc(Oc4ccccc4)cc3)C2)C1 [A105, (E)-1-(6-((6-amino-5-(4-phenoxyphenyl)pyrimidin-4-yl)oxy)-2-azaspiro[3.3]heptan-2-yl)-4-(dimethylamino)but-2-en-1-one] | < 1000 | < 100 |  | 
17 | C=CC(=O)N1CCC(COc2ncncc2-c2ccc(Oc3ccccc3)cc2)CC1 [A6, 1-(4-(((5-(4-phenoxyphenyl)pyrimidin-4-yl)oxy)methyl)piperidin-1-yl)prop-2-en-1-one] | < 1000 | < 100 |  | 
18 | C=CC(=O)Nc1cccc(Oc2ncnc(N)c2-c2ccc(C(=O)Nc3ccccc3)cc2)c1 [A258, 4-(4-(3-acrylamidophenoxy)-6-aminopyrimidin-5-yl)-N-phenylbenzamide] | > 1000 | < 100 |  | 

Row | Structure (SMILES) | IC50 [1] [nM] | IC50 [2] [nM] | IC50 [3, 4] [nM] | IC50 [3] [nM]
19 | C=CC(=O)Nc1cccc(Nc2ncnc(N)c2-c2ccc(Oc3ccccc3)cc2)c1 [A3, N-(3-((6-amino-5-(4-phenoxyphenyl)pyrimidin-4-yl)amino)phenyl)acrylamide] | < 1000 | < 100 | < 1000 | 
20 | C=CC(=O)N1CC2(CC(Oc3ncnc(N)c3-c3ccc(Oc4ccccc4)cc3)C2)C1 [A120, 1-(6-((6-amino-5-(4-phenoxyphenyl)pyrimidin-4-yl)oxy)-2-azaspiro[3.3]heptan-2-yl) prop-2-en-1-one] | < 1000 | < 100 | < 1000 | 
21 | C=CC(=O)Nc1cccc(Oc2ncnc(N)c2-c2cnn(Cc3cccc(F)c3)c2)c1 [A67, N-(3-((6-amino-5-(1-(3-fluorobenzyl)-1H-pyrazol-4-yl)pyrimidin-4-yl)oxy)phenyl)acrylamide] | < 1000 | < 100 |  | 
22 | C=CC(=O)N1CC[C@H](COc2ncnc(N)c2-c2ccc(Oc3ccccc3)cc2)C1 [A26, (S)-1-(3-(((6-amino-5-(4-phenoxyphenyl)pyrimidin-4-yl)oxy)methyl)pyrrolidin-1-yl)prop-2-en-1-one] | < 1000 |  |  | 
23 | C=CC(=O)N1CCC(CNc2ncnc(N)c2-c2ccc(Oc3ccccc3)cc2)(OC)CC1 [A121, 1-(4-(((6-amino-5-(4-phenoxyphenyl)pyrimidin-4-yl)amino)methyl)-4-methoxypiperidin-1-yl)prop-2-en-1-one] | < 1000 | < 100 |  | 
24 | C=CC(=O)N1CC2(CC(Oc3ncnc(N)c3-c3cnn(Cc4ccccc4)c3)C2)C1 [A106, 1-(6-((6-amino-5-(1-benzyl-1H-pyrazol-4-yl)pyrimidin-4-yl)oxy)-2-azaspiro[3.3]heptan-2-yl)prop-2-en-1-one] | > 1000 | < 100 |  | 
25 | C=CC(=O)N1CCCCC(Nc2ncnc(N)c2-c2ccc(Oc3ccccc3)cc2)C1 (stereo not shown) [A52, 1-(3-((6-amino-5-(4-phenoxyphenyl)pyrimidin-4-yl)amino)azepan-1-yl)prop-2-en-1-one] | < 1000 | < 100 |  | 
26 | C=CC(=O)N[C@H]1C[C@H](Nc2ncnc(N)c2-c2ccc(Oc3ccccc3)cc2)C1 [A117, N-(1,3-trans-3-((6-amino-5-(4-phenoxyphenyl)pyrimidin-4-yl)amino)cyclobutyl)acrylamide] | < 1000 | < 100 |  | 
27 | C#CC(=O)N[C@@H]1CCC[C@H](Nc2ncnc(N)c2-c2ccc(Oc3ccccc3)cc2)C1 (relative stereo) [A64, N-(cis-3-((6-amino-5-(4-phenoxyphenyl)pyrimidin-4-yl)amino)cyclohexyl)propiolamide] | < 1000 | < 100 |  | 
28 | CC#CC(=O)N1CC[C@@H](Nc2ncnc(N)c2-c2ccc(Oc3ccccc3)cc2)C1 [A341, (R)-1-(3-((6-amino-5-(4-phenoxyphenyl)pyrimidin-4-yl)amino)pyrrolidin-1-yl)but-2-yn-1-one] | < 1000 | < 100 |  | 
29 | C=CS(=O)(=O)N1CCC(CNc2ncnc(N)c2-c2ccc(Oc3ccccc3)cc2)CC1 [A10, 5-(4-phenoxyphenyl)-N4-((1-(vinylsulfonyl)piperidin-4-yl)methyl)pyrimidine-4,6-diamine] | < 1000 |  |  | 
30 | CC#CC(=O)N1CCC(CNc2ncnc(N)c2-c2ccc(Oc3ccccc3)cc2)CC1 [A336, 1-(4-(((6-amino-5-(4-phenoxyphenyl)pyrimidin-4-yl)amino)methyl)piperidin-1-yl)but-2-yn-1-one] | < 1000 | < 100 |  | 
31 | C=CC(=O)N1C2CCC1CC(CNc1ncnc(N)c1-c1ccc(Oc3ccccc3)cc1)C2 (stereo not shown) [A48, 1-(3-(((6-amino-5-(4-phenoxyphenyl)pyrimidin-4-yl)amino)methyl)-8-azabicyclo[3.2.1]octan-8-yl)prop-2-en-1-one] |  | < 100 |  | > 1000
32 | C=CC(=O)N[C@H]1CC[C@@H](Nc2ncnc(N)c2-c2ccc(Oc3ccccc3)cc2)CC1 [A266, N-((1s,4s)-4-((6-amino-5-(4-phenoxyphenyl)pyrimidin-4-yl)amino)cyclohexyl)acrylamide] | < 1000 |  |  | 
33 | Nc1ncnc(NCC2CCN(C(=O)CCl)CC2)c1-c1ccc(Oc2ccccc2)cc1 [A45, 1-(4-(((6-amino-5-(4-phenoxyphenyl)pyrimidin-4-yl)amino)methyl)piperidin-1-yl)-2-chloroethanone] | < 1000 |  |  | 
34 | C=CC(=O)N1CCC(CNc2ncnc(N)c2-c2ccc(Oc3ccccc3)cc2)CC1 [A250, 1-(4-(((6-amino-5-(4-phenoxyphenyl)pyrimidin-4-yl)amino)methyl)piperidin-1-yl)prop-2-en-1-one] | < 1000 |  |  | 
35 | C=CC(=O)N1CC[C@@H](Nc2ncnc(N)c2-c2ccc(Oc3ccccc3)cc2)C1 [A1, (R)-1-(3-((6-amino-5-(4-phenoxyphenyl)pyrimidin-4-yl)amino)pyrrolidin-1-yl)prop-2-en-1-one] | < 1000 |  |  | 
